Patent EP0286418A1, “Anti-retroviral agents and delivery systems for the same” (priority 1987, dated 1988)

How the values were obtained:
[1] = leakage from liposomes at 37°C in DMEM-GG-FCS; format: physicochemical
Description: The release of liposome contents as a function of time was assessed by centrifugal elution of free ddCTP through Centrifree filters (Amicon, Danvers, Mass., USA). Typically, 100 microliters of suspension was centrifuged at 1500 G for about 10 minutes, 100 microliters additional phosphate-buffered saline was added, and the filter was again spun for about 10 minutes. Pooled filtrate was counted for ³H-ddCTP to determine released drug, and the filter itself was similarly counted to establish the mass balance. Very little ¹⁴C-cholesteryl oleate was ever found in the filtrate, indicating that liposomal lipid was not passing through the filter. […] Leakage tests were also conducted under conditions mimicking those of the viral experiments infra, i.e., in tissue culture plates with 96 flat-bottom wells (Costar, Cambridge, Mass., USA) at 37°C in a CO₂ incubator in Dulbecco's Minimal Eagles Medium supplemented with gentamycin, glutamine, and 10% fetal calf serum (DMEM-GG-FCS). […] In contrast, 50% of the ddC was released within 1 hour, and 95% within 4 hours.

monocytes = assay: superoxide generation by monocytes; format: cell-based, Human
Description: Human peripheral blood mononuclear cells were obtained by standard procedures employing continuous flow cell separation (leukapheresis), such as described in Wahl, et al., Cellular Immunol. 85:373-383 (1984). The preparation was diluted in phosphate-buffered saline and layered onto gradients of Ficoll-Paque (Pharmacia-PL Biochemicals, Piscataway, N.J., USA). After centrifugation, mononuclear cells were pipetted from the interface, washed, and suspended in DMEM-GG-FCS. They were then fractionated by countercurrent centrifugal elutriation. The procedure comprises the Beckman elutriation system including a J-21 Beckman Centrifuge, a JE-6 elutriator rotor, a stroboscope, and a Masterflex pump and pumphead. The cells were loaded into the rotor and fractionated by elution at increasing flow rates. Fractions 7 and 8, highly enriched for monocytes, were pooled for use.

in vitro = in vitro ADME; conditions: serum-containing medium with cells

Structure (SMILES): Nc1ccn([C@H]2CC[C@@H](COP(=O)(O)OP(=O)(O)OP(=O)(O)O)O2)c(=O)n1 [ddCTP, 2ʹ,3ʹ-dideoxycytidine-5ʹ-triphosphate]
- % of total drug in liposomes ([1]; absence of cells, 0 h): 85.6%
- % of total drug in liposomes ([1]; absence of cells, 0.16 h): 74.3%
- % of total drug in liposomes ([1]; absence of cells, 0.32 h): 78.5%
- % of total drug in liposomes ([1]; absence of cells, 1 h): 77.2%
- % of total drug in liposomes ([1]; absence of cells, 2 h): 82.1%
- % of total drug in liposomes ([1]; absence of cells, 4 h): 78.5%
- % of total drug in liposomes ([1]; absence of cells, 24 h): 81.7%
- % of total drug in liposomes ([1]; absence of cells, 48 h): 75.7%
- % of total drug in liposomes ([1]; absence of cells, 72 h): 87.4%
- leakage from liposomes ([1]; over a period of 72 hours, presence or absence of adherent monocytes): Very little leakage
- % of total drug in liposomes ([1]; with adherent human monocytes, 0 h): 84.4%
- % of total drug in liposomes ([1]; with adherent human monocytes, 0.16 h): 83.8%
- % of total drug in liposomes ([1]; with adherent human monocytes, 0.32 h): 84.4%
- % of total drug in liposomes ([1]; with adherent human monocytes, 1 h): 78.0%
- % of total drug in liposomes ([1]; with adherent human monocytes, 2 h): 83.3%
- % of total drug in liposomes ([1]; with adherent human monocytes, 4 h): 82.9%
- % of total drug in liposomes ([1]; with adherent human monocytes, 24 h): 75.9%
- % of total drug in liposomes ([1]; with adherent human monocytes, 48 h): 68.0%
- % of total drug in liposomes ([1]; with adherent human monocytes, 72 h): 78.4%
- Superoxide (monocytes; ddCTP 2.2 uM): 1.21 (.02) nmoles/well
- Superoxide (monocytes; ddCTP 11 uM): 0.85 (.04) nmoles/well
- Superoxide (monocytes; ddCTP 56 uM): 0.77 (.04) nmoles/well
- Superoxide (monocytes; ddCTP .0 uM): 1.19 (.06) nmoles/well
- Superoxide (monocytes; ddCTP .018 uM): 1.33 (.05) nmoles/well
- Superoxide (monocytes; ddCTP .09 uM): 1.42 (.10) nmoles/well
- Superoxide (monocytes; ddCTP .45 uM): 1.33 (.08) nmoles/well
- Percent of total drug 3H as ddCTP (in vitro; 0.5 h): 67.8%
- remaining at 72 h (in vitro; Percent of total drug 3H as ddCTP): 0%
